{"source": "patent US20250041334A1", "about": "“Compositions for Virulence Suppression” (Solventum Intellectual Properties Company, priority 2021, published 2025)", "key": {"S. aureus MN8 (pJY202)": {"test_system": "S. aureus MN8 (pJY202)", "experiment": "Bacterial growth (OD600) in the Agr reporter assay", "assay_type": "cell-based, Staphylococcus aureus MN8", "conditions": "1X TY media, pH about 6.0, 24 hours", "procedure": "(§1) An S. aureus MN8 (pJY202) colony was picked from a TSA plate and grown overnight in TSB media with 5 µg/mL erythromycin with shaking at 37° C. The culture was centrifuged at 3000×g for 5 minutes and the supernatant was removed. The bacteria were washed once with water.\n(§2) Individual growth media solutions for the assay were freshly prepared by adding materials to 1X TY media with 5 μg/mL erythromycin and then adjusting the pH of each solution to about pH 6.0 (using 1M NaOH or 1M HCl). All the growth media solutions were sterile filtered when possible using a 0.2 micrometer filter.\n(§3) An aliquot of each growth media solution (200 microliters) was added to the well of a 96-well black, clear-bottom plate. Samples were prepared in triplicate (n=3). The bacteria samples were resuspended in 5 mL of 1X TY media. A 3 microliter sample of resuspended S. aureus MN8 (pJY202) was added to each well. […] Bacterial growth was measured at 600 nm (OD600) and Agr activity was measured as fluorescent intensity at 485 nm excitation/528 nm emission. Agr activity (relative fluorescence units, RFU) was normalized to bacterial growth (OD600) for each well. The Agr activity was measured at the 24 hour time point."}, "[1]": {"test_system": "accessory gene regulator (agr) system, agr P2-P3 GFP reporter pJY202", "experiment": "Agr Reporter (Staph Aureus) Assay", "assay_type": "cell-based, Staphylococcus aureus MN8", "conditions": "S. aureus MN8 (pJY202), 1X TY media, RFU normalized to OD600, 24 hours, n=3", "procedure": "Description: The expression of many virulence factors in Staphylococcus aureus is controlled by the quorum sensing accessory gene regulator (agr) system. The plasmid pJY202 is an agr reporter that contains a fusion of the agr P2-P3 region with a gene coding for GFP.\nas §1, §2\nas §3, with “media.” for “media. A 3 microliter sample of resuspended S. aureus MN8 (pJY202) was added to each well.”"}}, "data": [{"compound": "O=P([O-])(O)O.[K+]", "note": "[50 mM KH2PO4, KH2PO4]", "values": [{"measurement": "Growth OD600 at 24 hours", "setting": "S. aureus MN8 (pJY202)", "value": 1.02}, {"measurement": "Agr Expression at 24 hours", "setting": "[1]", "value": "86 +/− 6"}]}]}
